The source of these data is publication PMC2776038 (Molecular cell, 2009).

The subject of the assay is XPD (Rad3) helicase. Nature of the assay: single-molecule TIRF, Cy3 quenching by FeS cluster. The assay is classed as biochemical, Ferroplasma acidarmanus. To be noted: 3'-Cy3 ssDNA, 600 pM XPD, no RPA; 50 mM Tris-HCl pH 7.5, 3 mM MgCl2, 25 °C.

The Km is the substrate concentration at which the rate is half of its maximum.

On to `Nc1ncnc2c1ncn2[C@@H]1O[C@H](COP(=O)(O)OP(=O)(O)OP(=O)(O)O)[C@@H](O)[C@H]1O` [ATP], for which the Km was determined as 2.8 ± 1 µM.
